Test results reported in patent US20110306606A1, “NOVEL 2,6-SUBSTITUTED-3-NITROPYRIDINE DERIVATIVE, METHOD FOR PREPARING SAME, AND PHARMACEUTICAL COMPOSITION INCLUDING SAME” (priority 2008, published 2011).

These molecules were tested on Osteoblasts (Calvarial cells) (assay: Cytotoxicity test (MTT)). Details: 1 μM compound, 72 hours, in comparison with vehicle control.
Protocol: For the preparation of osteoblasts (Calvarial cells), the calvaria were aseptically dissected from 1 to 2-day-old neonatal ICR mice and subjected to continuous reaction with a 0.2% collagenase solution to separate osteoblasts. The cell-suspended supernatant was centrifuged to recover osteoblasts which were grown to full confluence in an α-MEM supplemented with 10% FBS and then diluted to a desired cell density for use in the experiment.
Cytotoxicity of the compounds of the present invention was evaluated by carrying out the experiment described below.
The vehicle control group was established to contain 0.2% DMSO. 100 μL/well of the diluted drugs were dispensed into 96-well plates to which osteoblasts (calvarial cells) prepared in Experimental Example 1 were then added at a density of 1.0×10^4 cells/100 μL/well. Here, the final compound concentration in the cell culture was 1 μM, and the vehicle control group contained 0.1% DMSO. The cells were cultured in a 5% CO2 inhibitor at 37° for 72 hours. 25 μL of 3-(4,5-dimethyl-2-thiazolyl)-2,5-diphenyl-2H-tetrazolium bromide (MTT) dissolved in PBS (2 mg/mL) was added to each cell culture 4 hours before the end of culture. After completion of the reaction, the plates were centrifuged, the media were discarded, and 100 μL of formazan was added and dissolved in dimethyl sulfoxide (DMSO). Finally, the absorbance of the developed plates was measured at 540 nm. The cell viability was expressed as % concentration in comparison with the vehicle control group.

| SMILES | Cell viability (%) Calvarial cell |
| --- | --- |
| CCN(CC)c1ccc(Nc2nc(N3CCC(O)CC3)ccc2[N+](=O)[O-])cc1F [Compound 179, 2-[(3-fluoro-4-diethylamino)phenylamino]-6-(4-hydroxypiperidino)-3-nitropyridine] | 104% |
| CCN(CC)c1ccc(Nc2nc(-n3ccnc3C(C)C)ccc2[N+](=O)[O-])cc1F [Compound 180, 2-[(3-fluoro-4-diethylamino)phenylamino]-6-[(2-isopropyl)imidazol-1-yl]-3-nitropyridine] | 100% |
| CCN(CC)c1ccc(Nc2nc(N3CCN=C3C)ccc2[N+](=O)[O-])cc1F [Compound 181, 2-[(3-fluoro-4-diethylamino)phenylamino]-6-[(2-methyl-4,5-dihydro)imidazol-1-yl]-3-nitropyridine] | 106% |
| CCN(CC)c1ccc(Nc2nc(N3CCNCC3)ccc2[N+](=O)[O-])cc1F [Compound 182, 2-[(3-fluoro-4-diethylamino)phenylamino]-6-(piperazin-1-yl)-3-nitropyridine] | 101% |
| CCN(CC)c1ccc(Nc2nc(N3CCN(C)CC3)ccc2[N+](=O)[O-])cc1F [Compound 183, 2-[(3-fluoro-4-diethylamino)phenylamino]-6-(4-methylpiperazin-1-yl)-3-nitropyridine] | 113% |
| CCN(CC)c1ccc(Nc2nc(N3CCOCC3)ccc2[N+](=O)[O-])cc1F [Compound 184, 2-[(3-fluoro-4-diethylamino)phenylamino]-6-morpholino-3-nitropyridine] | 110% |
| CCN(CC)c1ccc(Nc2nc(NCc3cccnc3)ccc2[N+](=O)[O-])cc1F [Compound 185, 2-[(3-fluoro-4-diethylamino)phenylamino]-6-[(3-pyridyl)methylamino]-3-nitropyridine] | 111% |
| CCN(CC)c1ccc(Nc2nc(NCc3ccncc3)ccc2[N+](=O)[O-])cc1F [Compound 186, 2-[(3-fluoro-4-diethylamino)phenylamino]-6-[(4-pyridyl)methylamino]-3-nitropyridine] | 113% |
| CCN(CC)c1ccc(Nc2nc(N3CCC(N)CC3)ccc2[N+](=O)[O-])cc1F [Compound 187, 2-[(3-fluoro-4-diethylamino)phenylamino]-6-(4-aminopiperidino)-3-nitropyridine] | 102% |
| CCN(CC)c1ccc(Nc2nc(NCCN3CCOCC3)ccc2[N+](=O)[O-])cc1F [Compound 188, 2-[(3-fluoro-4-diethylamino)phenylamino]-6-[2-(morpholin-1-yl)ethylamino]-3-nitropyridine] | 111% |
| CCN(CC)c1ccc(Nc2nc(NCCCn3ccnc3)ccc2[N+](=O)[O-])cc1F [Compound 189, 2-[(3-fluoro-4-diethylamino)phenylamino]-6-[(3-imidazol-1-yl)propylamino]-3-nitropyridine] | 129% |
| CCN(CC)c1ccc(Nc2nc(NCCCN3CCOCC3)ccc2[N+](=O)[O-])cc1F [Compound 190, 2-[(3-fluoro-4-diethylamino)phenylamino]-6-[(3-morpholin-1-yl)propylamino]-3-nitropyridine] | 123% |
| O=[N+]([O-])c1ccc(N2CCC(O)CC2)nc1Nc1ccc(N2CCOCC2)c(F)c1 [Compound 194, 2-[(3-fluoro-4-morpholino)phenylamino]-6-(4-hydroxypiperidino)-3-nitropyridine] | 107% |
| CC1=NCCN1c1ccc([N+](=O)[O-])c(Nc2ccc(N3CCOCC3)c(F)c2)n1 [Compound 195, 2-[(3-fluoro-4-morpholino)phenylamino]-6-[(2-methyl-4,5-dihydro)imidazol-1-yl]-3-nitropyridine] | 104% |
| CC(C)c1nccn1-c1ccc([N+](=O)[O-])c(Nc2ccc(N3CCOCC3)c(F)c2)n1 [Compound 196, 2-[(3-fluoro-4-morpholino)phenylamino]-6-[(2-isopropyl)imidazol-1-yl]-3-nitropyridine] | 100% |
